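Each compound was tested at five concentrations against cells in 96-well plates for 48 hours. The concentration for 50% growth inhibition is given as GI50.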 Active and inactive are the calls of the source. No stated cut-off is given here; in the data, active = GI50 up to about 1.1 µM and inactive = higher.
How the values were obtained:
Experiment in all cases: NCI-60 cell line screen, 48 h
[1] = test system: MOLT-4
[2] = test system: UACC-257
[3] = test system: A549
[4] = test system: EKVX
[5] = test system: U-251
[6] = test system: SF-295
[7] = test system: K562
[8] = test system: NCI-H522
[9] = test system: IGROV-1
[10] = test system: UACC-62
[11] = test system: RXF 393
[12] = test system: NCI-H226
[13] = test system: COLO 205
[14] = test system: SK-MEL-5
[15] = test system: OVCAR-4
[16] = test system: HL-60
[17] = test system: LOX IMVI
[18] = test system: SF-268
[19] = test system: Malme-3M
[20] = test system: HCT-116

Question: Which results are given for CN(CCO)Cc1ncccc1O?
Answer: GI50 [1]: 25.5 µM (inactive); GI50 [2]: > 100 µM (inactive); GI50 [3]: > 100 µM (inactive); GI50 [4]: > 100 µM (inactive); GI50 [5]: > 100 µM (inactive); GI50 [6]: > 100 µM (inactive); GI50 [7]: 0.495 µM (active); GI50 [8]: > 100 µM (inactive); GI50 [9]: > 100 µM (inactive); GI50 [10]: > 100 µM (inactive); GI50 [11]: > 100 µM (inactive); GI50 [12]: > 100 µM (inactive); GI50 [13]: > 100 µM (inactive); GI50 [14]: > 100 µM (inactive); GI50 [15]: > 100 µM (inactive); GI50 [16]: 64.3 µM (inactive); GI50 [17]: > 100 µM (inactive); GI50 [18]: > 100 µM (inactive); GI50 [19]: > 100 µM (inactive)

Question: Which results are given for CON(C)C(C#N)=C(C#N)C#N?
Answer: GI50 [1]: > 10 µM (inactive); GI50 [3]: > 10 µM (inactive); GI50 [4]: > 10 µM (inactive); GI50 [20]: > 10 µM (inactive); GI50 [5]: > 10 µM (inactive); GI50 [6]: > 10 µM (inactive); GI50 [7]: > 10 µM (inactive); GI50 [8]: > 10 µM (inactive); GI50 [9]: > 10 µM (inactive); GI50 [10]: > 10 µM (inactive); GI50 [11]: > 10 µM (inactive); GI50 [12]: 2.86 µM (inactive); GI50 [13]: > 10 µM (inactive); GI50 [14]: > 10 µM (inactive); GI50 [15]: > 10 µM (inactive); GI50 [16]: > 10 µM (inactive); GI50 [17]: > 10 µM (inactive); GI50 [18]: > 10 µM (inactive); GI50 [19]: > 10 µM (inactive)

Question: How did the GI50 [1] turn out when O=C1c2ccccc2N(O)C1(c1ccccc1)C1CCCC=C1N1CCOCC1 (configuration not stated) was run?
Answer: 20.8 µM (inactive)

Question: What about the GI50 [2] of the same compound?
Answer: 70.6 µM (inactive)

Question: And the GI50 [3]?
Answer: 50.4 µM (inactive)

Question: And the GI50 [4]?
Answer: 34.7 µM (inactive)

Question: And the GI50 [20]?
Answer: 28.5 µM (inactive)

Question: What about the GI50 [5] of the same compound?
Answer: 87.5 µM (inactive)

Question: And the GI50 [6]?
Answer: > 100 µM (inactive)

Question: What about the GI50 [7] of the same compound?
Answer: 39.8 µM (inactive)

Question: And the GI50 [8]?
Answer: 22.5 µM (inactive)

Question: What about the GI50 [9] of the same compound?
Answer: > 100 µM (inactive)

Question: What about the GI50 [10] of the same compound?
Answer: 35.8 µM (inactive)

Question: What about the GI50 [11] of the same compound?
Answer: 22.4 µM (inactive)

Question: What about the GI50 [12] of the same compound?
Answer: 69.5 µM (inactive)

Question: And the GI50 [13]?
Answer: > 100 µM (inactive)

Question: What about the GI50 [14] of the same compound?
Answer: > 69.5 µM (inactive)

Question: And the GI50 [16]?
Answer: 50.4 µM (inactive)

Question: What about the GI50 [17] of the same compound?
Answer: 71.1 µM (inactive)

Question: What about the GI50 [18] of the same compound?
Answer: 40.8 µM (inactive)

Question: For O=C(Nn1c(-c2ccccc2)nc2ccccc2c1=O)c1ccc(CS)cc1, which GI50 [1] is on record?
Answer: 16.6 µM (inactive)

Question: What about the GI50 [2] of the same compound?
Answer: > 100 µM (inactive)

Question: What about the GI50 [3] of the same compound?
Answer: 36.7 µM (inactive)

Question: And the GI50 [4]?
Answer: 36.7 µM (inactive)

Question: And the GI50 [20]?
Answer: 39.4 µM (inactive)

Question: What about the GI50 [5] of the same compound?
Answer: 27.6 µM (inactive)

Question: What about the GI50 [6] of the same compound?
Answer: > 100 µM (inactive)

Question: What about the GI50 [7] of the same compound?
Answer: 38.2 µM (inactive)

Question: And the GI50 [8]?
Answer: 52.2 µM (inactive)

Question: What about the GI50 [9] of the same compound?
Answer: 26.1 µM (inactive)

Question: And the GI50 [10]?
Answer: 27.7 µM (inactive)

Question: What about the GI50 [11] of the same compound?
Answer: 44.7 µM (inactive)

Question: And the GI50 [12]?
Answer: 37.7 µM (inactive)

Question: What about the GI50 [13] of the same compound?
Answer: 60.3 µM (inactive)

Question: What about the GI50 [14] of the same compound?
Answer: 11.8 µM (inactive)

Question: And the GI50 [15]?
Answer: 98.4 µM (inactive)

Question: What about the GI50 [16] of the same compound?
Answer: 16 µM (inactive)

Question: What about the GI50 [17] of the same compound?
Answer: 1.67 µM (inactive)

Question: What about the GI50 [18] of the same compound?
Answer: 26.2 µM (inactive)

Question: What about the GI50 [19] of the same compound?
Answer: 36.6 µM (inactive)

Question: Which results are given for O=c1nc(NC(c2ccccc2)(c2ccccc2)c2ccccc2)ccn1CCCl?
Answer: GI50 [1]: 16.2 µM (inactive); GI50 [2]: > 10 µM (inactive); GI50 [3]: 30 µM (inactive); GI50 [4]: 26.9 µM (inactive); GI50 [20]: 18.8 µM (inactive); GI50 [5]: 15.3 µM (inactive); GI50 [6]: 20.6 µM (inactive); GI50 [7]: 21.8 µM (inactive); GI50 [8]: 22.8 µM (inactive); GI50 [9]: 19.3 µM (inactive); GI50 [11]: 16.1 µM (inactive); GI50 [12]: 21.2 µM (inactive); GI50 [13]: 25.6 µM (inactive); GI50 [15]: 20.6 µM (inactive); GI50 [16]: 22.8 µM (inactive); GI50 [17]: 17.1 µM (inactive); GI50 [18]: 17.2 µM (inactive); GI50 [19]: 14.6 µM (inactive)

Question: How did the GI50 [1] turn out when COc1cccc(OCC(=N/NC(=O)c2ccncc2)/N=C/c2ccncc2)c1 was run?
Answer: > 100 µM (inactive)

Question: And the GI50 [2]?
Answer: > 100 µM (inactive)

Question: And the GI50 [3]?
Answer: > 100 µM (inactive)

Question: And the GI50 [4]?
Answer: > 100 µM (inactive)

Question: And the GI50 [20]?
Answer: > 100 µM (inactive)

Question: And the GI50 [5]?
Answer: > 100 µM (inactive)

Question: What about the GI50 [6] of the same compound?
Answer: > 100 µM (inactive)

Question: What about the GI50 [7] of the same compound?
Answer: > 100 µM (inactive)

Question: What about the GI50 [8] of the same compound?
Answer: > 100 µM (inactive)

Question: And the GI50 [9]?
Answer: > 100 µM (inactive)

Question: And the GI50 [10]?
Answer: > 100 µM (inactive)

Question: What about the GI50 [11] of the same compound?
Answer: 52 µM (inactive)

Question: What about the GI50 [12] of the same compound?
Answer: > 100 µM (inactive)

Question: And the GI50 [13]?
Answer: > 100 µM (inactive)

Question: What about the GI50 [15] of the same compound?
Answer: > 100 µM (inactive)

Question: What about the GI50 [16] of the same compound?
Answer: > 100 µM (inactive)

Question: What about the GI50 [17] of the same compound?
Answer: > 100 µM (inactive)

Question: And the GI50 [18]?
Answer: > 100 µM (inactive)

Question: What about the GI50 [19] of the same compound?
Answer: > 100 µM (inactive)

Question: With CC(=O)NNc1nc(C)c(C(=O)NNC(=O)C(=O)Nc2ccc([N+](=O)[O-])cc2C#N)s1 as the compound, how does the GI50 [1] read?
Answer: 38.5 µM (inactive)

Question: And the GI50 [2]?
Answer: > 100 µM (inactive)

Question: And the GI50 [3]?
Answer: > 100 µM (inactive)

Question: And the GI50 [4]?
Answer: 96.4 µM (inactive)

Question: And the GI50 [20]?
Answer: > 100 µM (inactive)

Question: And the GI50 [5]?
Answer: 52.7 µM (inactive)

Question: And the GI50 [6]?
Answer: > 10 µM (inactive)

Question: And the GI50 [7]?
Answer: 38.1 µM (inactive)

Question: What about the GI50 [8] of the same compound?
Answer: 76 µM (inactive)

Question: And the GI50 [9]?
Answer: > 100 µM (inactive)

Question: And the GI50 [10]?
Answer: > 100 µM (inactive)

Question: And the GI50 [12]?
Answer: > 100 µM (inactive)

Question: What about the GI50 [13] of the same compound?
Answer: > 100 µM (inactive)

Question: What about the GI50 [14] of the same compound?
Answer: > 100 µM (inactive)

Question: What about the GI50 [15] of the same compound?
Answer: 45.3 µM (inactive)

Question: And the GI50 [16]?
Answer: > 100 µM (inactive)

Question: And the GI50 [17]?
Answer: 52.7 µM (inactive)

Question: And the GI50 [18]?
Answer: 52.2 µM (inactive)

Question: And the GI50 [19]?
Answer: > 100 µM (inactive)

From ChEMBL document CHEMBL1201862, “PubChem BioAssay data set” (2004)
